In patent US20230285490A1, “ADDITIVE TO FISH FOOD COMPRISING TWO PLANT EXTRACTS AND A SEAWEED (PALMARIA PALMATA) EXTRACT AS TASTE MASKING AGENT; AND A METHOD TO COMBAT/ELIMINATE INFESTATIONS OF CALIGUS BY STERILIZATION OF FEMALE INDIVIDUALS IN FISH FARMING CENTERS AND MARINE CONCESSIONS” (priority 2020, published 2023):

Test system: ovigerous Caligus females
Test: In vitro plate bioassay on swimming behavior and survival of ovigerous Caligus females, comparison with emamectin benzoate (Example 7)
Conditions: 2 hours, 14° C., sea water
Description: However, 75% living females slowly swam, having a slow response to stimulus and adhered to experimentation vessels. • Between 87 and 100% parasites survived in control with solvents (methanol and DMSO) used to prepare each product and in sea water. Under these conditions females actively swam and readily responded to stimulus as bubbles of the aeration system or manipulation with tweezers.

emamectin benzoate
Affected and dead Total (%) (15 ovigerous females): 27% | Affected ovigerous females (15 ovigerous females): 1 | Vivas (living ovigerous females) (15 ovigerous females): 11 | dead ovigerous females (15 ovigerous females): 3 | Affected and dead Total (%) (15 ovigerous females, listed as emamectin benzoate): 25% | remaining living females with slow/erratic swimming: 75%
